Assay results: ChEMBL document CHEMBL3991601, “The target landscape of clinical kinase drugs” (Science, 2017)
The source made the active and inactive calls. Rule as the data show it, for most assays here: actives have a measured Kd and inactives only a lower limit.

Target: TRAF2 and NCK-interacting protein kinase (Homo sapiens, UniProt Q9UKE5)
Also: in the data inactive means no Kd found up to 30 µM.

Sequence of TRAF2 and NCK-interacting protein kinase (Q9UKE5 whole entry): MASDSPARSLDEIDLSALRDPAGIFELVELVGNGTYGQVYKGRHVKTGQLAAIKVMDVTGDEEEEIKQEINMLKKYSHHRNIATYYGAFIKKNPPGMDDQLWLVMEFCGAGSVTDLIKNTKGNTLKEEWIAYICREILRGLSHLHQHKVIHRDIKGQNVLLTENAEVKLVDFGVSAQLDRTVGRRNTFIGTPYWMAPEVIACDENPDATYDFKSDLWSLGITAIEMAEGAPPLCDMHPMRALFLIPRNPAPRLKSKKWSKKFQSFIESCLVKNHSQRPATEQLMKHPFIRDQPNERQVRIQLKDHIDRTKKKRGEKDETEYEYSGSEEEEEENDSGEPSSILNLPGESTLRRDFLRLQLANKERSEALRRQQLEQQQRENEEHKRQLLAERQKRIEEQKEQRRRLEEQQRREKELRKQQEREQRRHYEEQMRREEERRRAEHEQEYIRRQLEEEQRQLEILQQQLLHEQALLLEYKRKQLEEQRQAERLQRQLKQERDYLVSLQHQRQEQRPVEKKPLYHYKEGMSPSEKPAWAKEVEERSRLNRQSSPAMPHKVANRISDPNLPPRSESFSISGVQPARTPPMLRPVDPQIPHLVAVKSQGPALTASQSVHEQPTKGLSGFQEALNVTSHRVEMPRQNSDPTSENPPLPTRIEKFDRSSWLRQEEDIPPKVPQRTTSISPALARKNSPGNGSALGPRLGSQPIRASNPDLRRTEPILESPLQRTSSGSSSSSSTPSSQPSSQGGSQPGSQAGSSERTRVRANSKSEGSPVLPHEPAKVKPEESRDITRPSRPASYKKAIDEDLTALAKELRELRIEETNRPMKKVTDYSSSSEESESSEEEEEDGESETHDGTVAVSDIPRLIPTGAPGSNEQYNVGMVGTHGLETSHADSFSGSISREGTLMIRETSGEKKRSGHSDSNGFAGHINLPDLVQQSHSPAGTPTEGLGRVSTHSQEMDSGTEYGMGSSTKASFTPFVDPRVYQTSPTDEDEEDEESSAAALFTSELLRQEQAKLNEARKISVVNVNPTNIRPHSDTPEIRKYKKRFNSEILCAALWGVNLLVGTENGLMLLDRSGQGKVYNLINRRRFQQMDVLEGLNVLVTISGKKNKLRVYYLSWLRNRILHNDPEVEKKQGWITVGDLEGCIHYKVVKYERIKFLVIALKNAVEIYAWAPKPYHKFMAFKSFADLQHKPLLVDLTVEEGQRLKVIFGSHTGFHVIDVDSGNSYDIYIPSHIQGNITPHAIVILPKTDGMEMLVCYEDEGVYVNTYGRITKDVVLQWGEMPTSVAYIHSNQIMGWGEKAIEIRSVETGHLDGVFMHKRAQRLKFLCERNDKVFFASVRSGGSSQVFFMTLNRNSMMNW

Row | SMILES | Kd
1 | C=CC(=O)N1CCC(Oc2cc3c(Nc4ccc(Cl)c(Cl)c4F)ncnc3cc2OC)CC1 [POZIOTINIB] | > 30 µM (inactive)
2 | C[C@@H](c1ccc2nccn2c1)n1nnc2ncc(-c3cnn(C)c3)nc21 [SAVOLITINIB] | > 30 µM (inactive)
3 | O=C(Nc1cccc(Cl)c1)Nc1ncc(CCNc2ncnc3ccsc23)s1 [SNS-314] | > 30 µM (inactive)
4 | O=c1sn(-c2cccc3ccccc23)c(=O)n1Cc1ccccc1 [TIDEGLUSIB] | > 30 µM (inactive)
5 | CN1N=C(N)c2cn([C@@H]3O[C@H](COP(=O)(O)O)[C@@H](O)[C@H]3O)c3ncnc1c23 [TRICIRIBINE PHOSPHATE] | > 30 µM (inactive)

Target: GTP-binding nuclear protein Ran (Homo sapiens, UniProt P62826)

Row | SMILES | Kd
6 | CN1CCN(c2ccc3nc(-c4c(N)c5c(F)cccc5[nH]c4=O)[nH]c3c2)CC1 [DOVITINIB] | > 30 µM (inactive)
7 | Cc1cc(Nc2cc(N3CCN(C)CC3)nc(/C=C/c3ccccc3)n2)n[nH]1 [ENMD-2076] | > 30 µM (inactive)
8 | CCn1c(-c2nonc2N)nc2c(C#CC(C)(C)O)ncc(OC[C@H]3CCCNC3)c21 [GSK-690693] | > 30 µM (inactive)
9 | Cc1cn(-c2cc(NC(=O)c3ccc(C)c(Nc4nccc(-c5cccnc5)n4)c3)cc(C(F)(F)F)c2)cn1 [NILOTINIB] | > 30 µM (inactive)
10 | C=CC(=O)N1CCC(Oc2cc3c(Nc4ccc(Cl)c(Cl)c4F)ncnc3cc2OC)CC1 [POZIOTINIB] | > 30 µM (inactive)
11 | C[C@@H](c1ccc2nccn2c1)n1nnc2ncc(-c3cnn(C)c3)nc21 [SAVOLITINIB] | > 30 µM (inactive)
12 | O=C(Nc1cccc(Cl)c1)Nc1ncc(CCNc2ncnc3ccsc23)s1 [SNS-314] | > 30 µM (inactive)
13 | Nc1nc(N)c2nc(-c3cccc(O)c3)c(-c3cccc(O)c3)nc2n1 [TG100-115] | > 30 µM (inactive)
14 | O=c1sn(-c2cccc3ccccc23)c(=O)n1Cc1ccccc1 [TIDEGLUSIB] | > 30 µM (inactive)
15 | COc1cc2nccc(Oc3ccc(NC(=O)Nc4cc(C)on4)c(Cl)c3)c2cc1OC [TIVOZANIB] | > 30 µM (inactive)
16 | CN1N=C(N)c2cn([C@@H]3O[C@H](COP(=O)(O)O)[C@@H](O)[C@H]3O)c3ncnc1c23 [TRICIRIBINE PHOSPHATE] | > 30 µM (inactive)

Target: T1, Scaffold protein ILK (Homo sapiens, UniProt Q13418)
T1 sequence (Q13418 whole entry): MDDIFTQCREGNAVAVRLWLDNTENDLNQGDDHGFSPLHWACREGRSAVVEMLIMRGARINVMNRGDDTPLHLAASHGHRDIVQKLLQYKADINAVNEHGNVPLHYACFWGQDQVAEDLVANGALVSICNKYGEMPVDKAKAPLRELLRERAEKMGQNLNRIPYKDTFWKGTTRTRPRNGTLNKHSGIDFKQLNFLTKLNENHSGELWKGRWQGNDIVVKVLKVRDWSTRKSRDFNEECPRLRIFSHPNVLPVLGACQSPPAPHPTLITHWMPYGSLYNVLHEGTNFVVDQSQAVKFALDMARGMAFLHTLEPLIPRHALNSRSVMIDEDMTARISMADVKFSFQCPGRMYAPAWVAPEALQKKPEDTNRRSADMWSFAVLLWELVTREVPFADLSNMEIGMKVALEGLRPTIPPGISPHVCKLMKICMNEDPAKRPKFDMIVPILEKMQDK

Row | SMILES | Kd
17 | CN1CCN(c2ccc3nc(-c4c(N)c5c(F)cccc5[nH]c4=O)[nH]c3c2)CC1 [DOVITINIB] | > 30 µM (inactive)
18 | Cc1cc(Nc2cc(N3CCN(C)CC3)nc(/C=C/c3ccccc3)n2)n[nH]1 [ENMD-2076] | > 30 µM (inactive)
19 | CCn1c(-c2nonc2N)nc2c(C#CC(C)(C)O)ncc(OC[C@H]3CCCNC3)c21 [GSK-690693] | > 30 µM (inactive)
20 | Cc1c(F)cc(C(=O)NC2CC2)cc1-c1ccc(C(=O)NCC(C)(C)C)cn1 [LOSMAPIMOD] | > 30 µM (inactive)
21 | Cc1cn(-c2cc(NC(=O)c3ccc(C)c(Nc4nccc(-c5cccnc5)n4)c3)cc(C(F)(F)F)c2)cn1 [NILOTINIB] | 0.02 µM
22 | O=C(Nc1cccc(Cl)c1)Nc1ncc(CCNc2ncnc3ccsc23)s1 [SNS-314] | > 30 µM (inactive)
23 | COc1cc2nccc(Oc3ccc(NC(=O)Nc4cc(C)on4)c(Cl)c3)c2cc1OC [TIVOZANIB] | > 30 µM (inactive)

Target: T2, Ephrin type-B receptor 6 (Homo sapiens, UniProt O15197)
T2 sequence (O15197 whole entry): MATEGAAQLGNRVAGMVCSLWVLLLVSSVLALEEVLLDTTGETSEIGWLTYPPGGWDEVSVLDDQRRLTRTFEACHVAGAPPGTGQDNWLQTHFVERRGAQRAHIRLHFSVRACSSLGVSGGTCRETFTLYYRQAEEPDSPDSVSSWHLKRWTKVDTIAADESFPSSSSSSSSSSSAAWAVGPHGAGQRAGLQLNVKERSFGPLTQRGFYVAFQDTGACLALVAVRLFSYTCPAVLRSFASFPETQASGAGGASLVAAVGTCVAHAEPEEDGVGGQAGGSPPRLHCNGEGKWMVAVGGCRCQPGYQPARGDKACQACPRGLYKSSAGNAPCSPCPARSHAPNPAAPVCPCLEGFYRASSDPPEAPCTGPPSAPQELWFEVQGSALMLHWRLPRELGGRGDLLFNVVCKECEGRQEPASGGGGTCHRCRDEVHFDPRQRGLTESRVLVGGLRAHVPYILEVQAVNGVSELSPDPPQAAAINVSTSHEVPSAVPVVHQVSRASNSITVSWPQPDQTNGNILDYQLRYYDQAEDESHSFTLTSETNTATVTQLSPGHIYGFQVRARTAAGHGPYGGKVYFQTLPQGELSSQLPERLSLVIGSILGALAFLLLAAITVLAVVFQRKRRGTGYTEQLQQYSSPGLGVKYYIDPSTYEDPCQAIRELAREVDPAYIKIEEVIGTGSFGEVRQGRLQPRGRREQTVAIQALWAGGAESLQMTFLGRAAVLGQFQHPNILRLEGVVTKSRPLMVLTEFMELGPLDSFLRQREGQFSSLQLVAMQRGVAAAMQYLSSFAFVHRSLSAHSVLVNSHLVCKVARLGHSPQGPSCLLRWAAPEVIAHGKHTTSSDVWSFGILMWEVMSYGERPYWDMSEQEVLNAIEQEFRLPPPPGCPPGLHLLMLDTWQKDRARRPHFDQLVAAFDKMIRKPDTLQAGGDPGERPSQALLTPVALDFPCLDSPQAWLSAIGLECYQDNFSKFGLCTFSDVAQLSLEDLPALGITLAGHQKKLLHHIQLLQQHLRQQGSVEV

Row | SMILES | Kd
24 | Cc1cc(Nc2cc(N3CCN(C)CC3)nc(/C=C/c3ccccc3)n2)n[nH]1 [ENMD-2076] | > 30 µM (inactive)
25 | Cc1c(F)cc(C(=O)NC2CC2)cc1-c1ccc(C(=O)NCC(C)(C)C)cn1 [LOSMAPIMOD] | > 30 µM (inactive)
26 | C=CC(=O)N1CCC(Oc2cc3c(Nc4ccc(Cl)c(Cl)c4F)ncnc3cc2OC)CC1 [POZIOTINIB] | > 30 µM (inactive)
27 | C[C@@H](c1ccc2nccn2c1)n1nnc2ncc(-c3cnn(C)c3)nc21 [SAVOLITINIB] | > 30 µM (inactive)
28 | O=c1sn(-c2cccc3ccccc23)c(=O)n1Cc1ccccc1 [TIDEGLUSIB] | > 30 µM (inactive)
29 | COc1cc2nccc(Oc3ccc(NC(=O)Nc4cc(C)on4)c(Cl)c3)c2cc1OC [TIVOZANIB] | > 30 µM (inactive)

Target: T3, Mitogen-activated protein kinase kinase kinase 3 (Homo sapiens, UniProt Q99759)
T3 sequence (Q99759 whole entry): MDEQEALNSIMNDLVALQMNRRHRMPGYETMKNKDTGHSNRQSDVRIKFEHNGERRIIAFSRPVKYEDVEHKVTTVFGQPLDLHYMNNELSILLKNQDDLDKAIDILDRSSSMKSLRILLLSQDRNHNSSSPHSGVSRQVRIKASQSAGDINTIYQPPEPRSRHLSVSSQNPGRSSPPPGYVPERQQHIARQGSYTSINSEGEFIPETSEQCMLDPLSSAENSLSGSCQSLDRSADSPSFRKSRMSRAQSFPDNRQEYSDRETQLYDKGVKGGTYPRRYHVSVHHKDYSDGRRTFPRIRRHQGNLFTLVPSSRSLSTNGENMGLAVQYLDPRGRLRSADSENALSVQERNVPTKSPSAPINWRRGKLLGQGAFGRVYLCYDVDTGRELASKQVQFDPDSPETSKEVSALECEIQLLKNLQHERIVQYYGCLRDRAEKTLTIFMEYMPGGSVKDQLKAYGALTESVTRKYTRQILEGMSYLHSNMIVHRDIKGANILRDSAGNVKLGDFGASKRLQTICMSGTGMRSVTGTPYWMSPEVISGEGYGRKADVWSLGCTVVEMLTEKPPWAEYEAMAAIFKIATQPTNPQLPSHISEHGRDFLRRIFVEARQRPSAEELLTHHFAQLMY

Row | SMILES | Kd
30 | Cc1cc(Nc2cc(N3CCN(C)CC3)nc(/C=C/c3ccccc3)n2)n[nH]1 [ENMD-2076] | > 30 µM (inactive)
31 | Cc1c(F)cc(C(=O)NC2CC2)cc1-c1ccc(C(=O)NCC(C)(C)C)cn1 [LOSMAPIMOD] | > 30 µM (inactive)
32 | C=CC(=O)N1CCC(Oc2cc3c(Nc4ccc(Cl)c(Cl)c4F)ncnc3cc2OC)CC1 [POZIOTINIB] | > 30 µM (inactive)
33 | C[C@@H](c1ccc2nccn2c1)n1nnc2ncc(-c3cnn(C)c3)nc21 [SAVOLITINIB] | > 30 µM (inactive)
34 | O=C(Nc1cccc(Cl)c1)Nc1ncc(CCNc2ncnc3ccsc23)s1 [SNS-314] | > 30 µM (inactive)
35 | O=c1sn(-c2cccc3ccccc23)c(=O)n1Cc1ccccc1 [TIDEGLUSIB] | > 30 µM (inactive)
36 | COc1cc2nccc(Oc3ccc(NC(=O)Nc4cc(C)on4)c(Cl)c3)c2cc1OC [TIVOZANIB] | > 30 µM (inactive)
37 | CN1N=C(N)c2cn([C@@H]3O[C@H](COP(=O)(O)O)[C@@H](O)[C@H]3O)c3ncnc1c23 [TRICIRIBINE PHOSPHATE] | > 30 µM (inactive)

Target: Cyclin-dependent kinase 12 (Homo sapiens, UniProt Q9NYV4)
Sequence (Q9NYV4 whole entry): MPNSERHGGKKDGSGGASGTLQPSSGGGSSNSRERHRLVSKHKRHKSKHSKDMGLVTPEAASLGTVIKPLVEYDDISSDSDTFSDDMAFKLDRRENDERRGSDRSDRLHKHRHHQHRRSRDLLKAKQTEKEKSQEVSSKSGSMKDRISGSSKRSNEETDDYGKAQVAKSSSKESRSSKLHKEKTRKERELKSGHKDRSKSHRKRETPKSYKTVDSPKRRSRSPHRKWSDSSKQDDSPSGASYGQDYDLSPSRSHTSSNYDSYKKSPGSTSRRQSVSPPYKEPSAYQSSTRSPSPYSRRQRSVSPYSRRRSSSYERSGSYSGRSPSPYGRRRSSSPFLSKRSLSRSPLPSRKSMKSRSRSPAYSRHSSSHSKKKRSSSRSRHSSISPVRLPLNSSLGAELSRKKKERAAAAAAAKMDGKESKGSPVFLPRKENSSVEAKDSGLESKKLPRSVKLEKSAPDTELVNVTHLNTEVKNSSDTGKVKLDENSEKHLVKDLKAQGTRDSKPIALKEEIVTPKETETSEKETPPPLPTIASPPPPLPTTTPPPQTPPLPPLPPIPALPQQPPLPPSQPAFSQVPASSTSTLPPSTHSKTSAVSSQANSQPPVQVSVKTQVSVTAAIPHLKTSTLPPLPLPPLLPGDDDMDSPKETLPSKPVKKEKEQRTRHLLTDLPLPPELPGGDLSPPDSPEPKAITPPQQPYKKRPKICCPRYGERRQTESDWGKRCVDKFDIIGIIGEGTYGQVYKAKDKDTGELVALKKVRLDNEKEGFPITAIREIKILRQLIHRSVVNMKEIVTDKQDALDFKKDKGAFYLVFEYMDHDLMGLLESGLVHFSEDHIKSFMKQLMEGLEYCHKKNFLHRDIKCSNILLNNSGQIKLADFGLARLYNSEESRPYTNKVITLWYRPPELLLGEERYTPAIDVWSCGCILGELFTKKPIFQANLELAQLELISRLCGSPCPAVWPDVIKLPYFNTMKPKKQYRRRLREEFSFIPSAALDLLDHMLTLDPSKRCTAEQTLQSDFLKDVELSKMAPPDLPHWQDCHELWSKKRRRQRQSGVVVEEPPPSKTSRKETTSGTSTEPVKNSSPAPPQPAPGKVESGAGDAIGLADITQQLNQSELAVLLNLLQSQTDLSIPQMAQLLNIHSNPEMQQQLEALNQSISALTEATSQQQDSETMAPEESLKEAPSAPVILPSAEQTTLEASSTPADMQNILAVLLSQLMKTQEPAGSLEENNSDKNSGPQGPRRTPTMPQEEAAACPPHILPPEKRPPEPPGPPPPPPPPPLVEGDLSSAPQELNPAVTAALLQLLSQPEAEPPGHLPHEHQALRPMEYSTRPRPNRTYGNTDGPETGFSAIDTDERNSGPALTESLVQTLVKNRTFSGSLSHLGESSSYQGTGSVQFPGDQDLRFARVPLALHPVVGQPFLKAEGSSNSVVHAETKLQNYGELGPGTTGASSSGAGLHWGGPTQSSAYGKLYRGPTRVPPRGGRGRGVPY

Row | SMILES | Kd
38 | CN1CCN(c2ccc3nc(-c4c(N)c5c(F)cccc5[nH]c4=O)[nH]c3c2)CC1 [DOVITINIB] | > 30 µM (inactive)
39 | Cc1cc(Nc2cc(N3CCN(C)CC3)nc(/C=C/c3ccccc3)n2)n[nH]1 [ENMD-2076] | > 30 µM (inactive)
40 | CCn1c(-c2nonc2N)nc2c(C#CC(C)(C)O)ncc(OC[C@H]3CCCNC3)c21 [GSK-690693] | > 30 µM (inactive)
41 | Cc1c(F)cc(C(=O)NC2CC2)cc1-c1ccc(C(=O)NCC(C)(C)C)cn1 [LOSMAPIMOD] | > 30 µM (inactive)
42 | Cc1cn(-c2cc(NC(=O)c3ccc(C)c(Nc4nccc(-c5cccnc5)n4)c3)cc(C(F)(F)F)c2)cn1 [NILOTINIB] | > 30 µM (inactive)
43 | C=CC(=O)N1CCC(Oc2cc3c(Nc4ccc(Cl)c(Cl)c4F)ncnc3cc2OC)CC1 [POZIOTINIB] | > 30 µM (inactive)
44 | C[C@@H](c1ccc2nccn2c1)n1nnc2ncc(-c3cnn(C)c3)nc21 [SAVOLITINIB] | > 30 µM (inactive)
45 | O=C(Nc1cccc(Cl)c1)Nc1ncc(CCNc2ncnc3ccsc23)s1 [SNS-314] | > 30 µM (inactive)
46 | Nc1nc(N)c2nc(-c3cccc(O)c3)c(-c3cccc(O)c3)nc2n1 [TG100-115] | > 30 µM (inactive)
47 | O=c1sn(-c2cccc3ccccc23)c(=O)n1Cc1ccccc1 [TIDEGLUSIB] | > 30 µM (inactive)
48 | COc1cc2nccc(Oc3ccc(NC(=O)Nc4cc(C)on4)c(Cl)c3)c2cc1OC [TIVOZANIB] | > 30 µM (inactive)
49 | CN1N=C(N)c2cn([C@@H]3O[C@H](COP(=O)(O)O)[C@@H](O)[C@H]3O)c3ncnc1c23 [TRICIRIBINE PHOSPHATE] | > 30 µM (inactive)

Target: DnaJ homolog subfamily A member 1 (Homo sapiens, UniProt P31689)
Sequence (P31689 whole entry): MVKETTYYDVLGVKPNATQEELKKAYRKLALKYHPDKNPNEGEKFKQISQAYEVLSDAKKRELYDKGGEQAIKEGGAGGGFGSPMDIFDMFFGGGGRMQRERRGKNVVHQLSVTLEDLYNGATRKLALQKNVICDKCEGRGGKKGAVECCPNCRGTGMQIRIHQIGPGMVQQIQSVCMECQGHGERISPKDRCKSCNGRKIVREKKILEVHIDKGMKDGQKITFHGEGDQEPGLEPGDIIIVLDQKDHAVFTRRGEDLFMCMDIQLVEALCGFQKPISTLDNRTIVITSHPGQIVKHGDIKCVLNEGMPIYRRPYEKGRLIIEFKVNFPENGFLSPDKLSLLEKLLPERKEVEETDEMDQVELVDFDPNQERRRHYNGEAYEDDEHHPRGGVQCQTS

Row | SMILES | Kd
50 | CN1CCN(c2ccc3nc(-c4c(N)c5c(F)cccc5[nH]c4=O)[nH]c3c2)CC1 [DOVITINIB] | > 30 µM (inactive)
51 | Cc1cc(Nc2cc(N3CCN(C)CC3)nc(/C=C/c3ccccc3)n2)n[nH]1 [ENMD-2076] | > 30 µM (inactive)
52 | CCn1c(-c2nonc2N)nc2c(C#CC(C)(C)O)ncc(OC[C@H]3CCCNC3)c21 [GSK-690693] | > 30 µM (inactive)
53 | Cc1c(F)cc(C(=O)NC2CC2)cc1-c1ccc(C(=O)NCC(C)(C)C)cn1 [LOSMAPIMOD] | > 30 µM (inactive)
54 | Cc1cn(-c2cc(NC(=O)c3ccc(C)c(Nc4nccc(-c5cccnc5)n4)c3)cc(C(F)(F)F)c2)cn1 [NILOTINIB] | > 30 µM (inactive)
55 | C=CC(=O)N1CCC(Oc2cc3c(Nc4ccc(Cl)c(Cl)c4F)ncnc3cc2OC)CC1 [POZIOTINIB] | > 30 µM (inactive)
56 | C[C@@H](c1ccc2nccn2c1)n1nnc2ncc(-c3cnn(C)c3)nc21 [SAVOLITINIB] | > 30 µM (inactive)
57 | O=C(Nc1cccc(Cl)c1)Nc1ncc(CCNc2ncnc3ccsc23)s1 [SNS-314] | > 30 µM (inactive)
58 | Nc1nc(N)c2nc(-c3cccc(O)c3)c(-c3cccc(O)c3)nc2n1 [TG100-115] | > 30 µM (inactive)
59 | O=c1sn(-c2cccc3ccccc23)c(=O)n1Cc1ccccc1 [TIDEGLUSIB] | > 30 µM (inactive)
60 | COc1cc2nccc(Oc3ccc(NC(=O)Nc4cc(C)on4)c(Cl)c3)c2cc1OC [TIVOZANIB] | > 30 µM (inactive)
61 | CN1N=C(N)c2cn([C@@H]3O[C@H](COP(=O)(O)O)[C@@H](O)[C@H]3O)c3ncnc1c23 [TRICIRIBINE PHOSPHATE] | > 30 µM (inactive)
